# Data from patent US20050176705A1, “Compounds useful in the treatment of cns disorders” (priority 2000, published 2005).
# Where a name gives a salt, the structure may show the parent alone.
# Biological target: T1, human cloned 5-HT6 receptors (Homo sapiens, UniProt P50406)
# T1 construct: expressed in transfected cells
# Test: 5-HT6 receptor affinity (procedures outlined in WO 98/27081)
# Format: binding
# Settings: not given
# T1 sequence (P50406 whole entry): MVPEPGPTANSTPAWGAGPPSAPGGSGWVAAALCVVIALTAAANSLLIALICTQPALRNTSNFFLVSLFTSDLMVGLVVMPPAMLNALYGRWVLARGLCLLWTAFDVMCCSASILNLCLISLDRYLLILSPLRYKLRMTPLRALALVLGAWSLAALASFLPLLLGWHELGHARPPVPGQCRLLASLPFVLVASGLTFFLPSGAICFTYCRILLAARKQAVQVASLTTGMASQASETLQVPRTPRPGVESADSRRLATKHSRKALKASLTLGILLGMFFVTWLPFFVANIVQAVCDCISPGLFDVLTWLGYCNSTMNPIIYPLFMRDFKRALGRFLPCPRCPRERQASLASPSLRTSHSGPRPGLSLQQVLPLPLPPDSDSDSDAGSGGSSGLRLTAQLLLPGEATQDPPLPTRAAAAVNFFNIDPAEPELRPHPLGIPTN
row,SMILES,Ki
1,O=S(=O)(c1cccc(F)c1)n1ccc2c(N3CCNCC3)cccc21 [Example E22],0.2 to 1.58 nM
2,O=S(=O)(c1cccc2nsnc12)n1ccc2c(N3CCNCC3)cccc21 [Example E40],0.2 to 1.58 nM
3,O=S(=O)(c1c(Cl)cccc1Cl)n1ccc2c(N3CCNCC3)cccc21 [Example E70],0.2 to 1.58 nM
4,"COc1ccc2c(ccn2S(=O)(=O)c2ccc(C)cc2)c1N1CCNCC1 [Example E80, 5-Methoxy-4-(piperazin-1-yl)-1-(toluene-4-sulfonyl)-1H-indole]",0.2 to 1.58 nM
5,CN1CCN(c2cccc3c2ccn3S(=O)(=O)c2cccs2)CC1 [Example E98],0.2 to 1.58 nM
6,O=S(=O)(c1cccc(Br)c1)n1ccc2c(N3CCNCC3)cccc21 [Example E107],0.2 to 1.58 nM
7,O=S(=O)(c1cccc(Cl)c1)n1ccc2c(N3CCNCC3)cccc21 [Example E111],0.2 to 1.58 nM
8,Cc1ccc(S(=O)(=O)n2ccc3c(N4CCNCC4)cccc32)cc1Cl [Example E112],0.2 to 1.58 nM
9,O=S(=O)(c1ccc(Br)cc1)n1ccc2c(N3CCNCC3)cccc21 [Example E113],0.2 to 1.58 nM
10,O=[N+]([O-])c1cccc(S(=O)(=O)n2ccc3c(N4CCNCC4)cccc32)c1 [Example E119],0.2 to 1.58 nM
11,O=S(=O)(c1cccs1)n1ccc2c(N3CCNCC3)cccc21 [Example E121],0.2 to 1.58 nM
12,O=S(=O)(c1ccc(F)c(Cl)c1)n1ccc2c(N3CCNCC3)cccc21 [Example E123],0.2 to 1.58 nM
13,O=S(=O)(c1ccccc1Br)n1ccc2c(N3CCNCC3)cccc21 [Example E126],0.2 to 1.58 nM
14,"O=S(=O)(c1cc(F)cc(F)c1Cl)n1ccc2c(N3CCNCC3)cccc21 [Example E131, 1-(2-Chloro-3,5-difluorobenzenesulfonyl)-4-piperazin-1-yl-1H-indole]",0.2 to 1.58 nM
15,"O=S(=O)(c1cccc(Cl)c1)n1ccc2c(N3CCNCC3)c(Cl)ccc21 [Example E132, 5-Chloro-1-(3-chlorobenzenesulfonyl)-4-piperazin-1-yl-1H-indole hydrochloride]",0.2 to 1.58 nM
16,"O=S(=O)(c1ccccc1)n1ccc2c(N3CCNCC3)c(Cl)ccc21 [Example E135, 1-(Benzenesulfonyl)-5-chloro-4-piperazin-1-yl-1H-indole hydrochloride]",0.2 to 1.58 nM
17,"O=S(=O)(c1ccccc1Br)n1ccc2c(N3CCNCC3)c(Cl)ccc21 [Example E137, 1-(2-Bromobenzenesulfonyl)-5-chloro-4-piperazin-1-yl-1H-indole hydrochloride]",0.2 to 1.58 nM

row,SMILES,Ki
1,"Cc1cccc(S(=O)(=O)n2ccc3c(N4CCNCC4)c(Cl)ccc32)c1 [Example E140, 5-Chloro-1-(3-methylbenzenesulfonyl)-4-piperazin-4-yl-1H-indole hydrochloride]",0.2 to 1.58 nM
2,"O=S(=O)(c1ccccn1)n1ccc2c(N3CCNCC3)c(Cl)ccc21 [Example E149, 5-Chloro-1-(pyridine-2-sulfonyl)-4-piperazin-4-yl-1H-indole hydrochloride]",0.2 to 1.58 nM
3,"O=S(=O)(c1cccc(Cl)c1)n1cc(Cl)c2c(N3CCNCC3)cccc21 [Example E151, 3-Chloro-1-(3-chlorobenzenesulfonyl)4-piperazin-1-yl-1H-indole hydrochloride]",0.2 to 1.58 nM
4,"O=S(=O)(c1cccc(Cl)c1)n1ccc2c(N3CCNCC3)ccc(Cl)c21 [Example E152, 7-Chloro-1-(3-chlorobenzenesulfonyl)-4-piperazin-1-yl-1H-indole hydrochloride]",0.2 to 1.58 nM
5,"O=S(=O)(c1cc(Cl)cc(Cl)c1)n1ccc2c(N3CCNCC3)ccc(Cl)c21 [Example E153, 7-Chloro-1-(3,5-dichlorobenzenesulfonyl)-4-piperazin-1-yl-1H-indole hydrochloride]",0.2 to 1.58 nM
6,"O=S(=O)(c1ccccc1)n1ccc2c(N3CCNCC3)ccc(Cl)c21 [Example E154, 1-Benzenesulfonyl-7-choro-4-piperazin-1-yl-1H-indole hydrochloride]",0.2 to 1.58 nM
7,"O=S(=O)(c1cccc(Cl)c1)n1ccc2c(N3CCNCC3)ccc(Br)c21 [Example E156, 7-Bromo-1-(3-chlorobenzenesulfonyl)-4-piperazin-1-yl-1H-indole hydrochloride]",0.2 to 1.58 nM
8,"N#Cc1ccc(N2CCNCC2)c2ccn(S(=O)(=O)c3cccc(Cl)c3)c12 [Example E157, 7-Cyano-1-(3-chlorobenzenesulfonyl)-4-piperazin-1-yl-1H-indole hydrochloride]",0.2 to 1.58 nM
9,"O=S(=O)(c1cccc(Cl)c1)n1cc(Cl)c2c(N3CCNCC3)c(Cl)ccc21 [Example E158, 1-(3-Chlorobenzenesulfonyl)-3,5-dichloro-4-piperazin-1-yl-1H-indole hydrochloride]",0.2 to 1.58 nM
10,"O=S(=O)(c1cccc(Cl)c1)n1ccc2c(N3CCNCC3)c(Cl)cc(Cl)c21 [Example E159, 1-(3-Chlorobenzenesulfonyl)-5,7-dichloro piperazin-1-yl-1H-indole hydrochloride]",0.2 to 1.58 nM
11,"O=S(=O)(c1cccc(Cl)c1)n1ccc2c(N3CCNCC3)c(F)ccc21 [Example E163, 1-(3-Chlorobenzenesulfonyl)-5-fluoro-4-piperazin-1-yl-1H-indole hydrochloride]",0.2 to 1.58 nM
12,"Cc1cc2c(N3CCNCC3)cccc2n1S(=O)(=O)c1cccc(Cl)c1 [Example E165, 1-(3-Chlorobenzenesulfonyl)-2-methyl-4-piperazin-1-yl-1H-indole hydrochloride]",0.2 to 1.58 nM
13,"O=S(=O)(c1cccc(Cl)c1)n1ccc2c(N3CCNCC3)cc(Cl)cc21 [Example E166, 6-Chloro-1-(3-chlorobenzenesulfonyl)-4-piperazin-1-yl-1H-indole hydrochloride]",0.2 to 1.58 nM
14,"Cc1cn(S(=O)(=O)c2cccc(Cl)c2)c2cccc(N3CCNCC3)c12 [Example E167, 1-(3-Chlorobenzenesulfonyl)-3-methyl-4-piperazin-1-yl-1H-indole hydrochloride]",0.2 to 1.58 nM
15,"N#Cc1cc(Br)ccc1S(=O)(=O)n1ccc2c(N3CCNCC3)cccc21 [Example E171, 1-(4-Bromo-2-cyanobenzenesulfonyl)-4-piperazin-1-yl-1H-indole hydrochloride]",0.2 to 1.58 nM
16,"COc1ccc2c(ccn2S(=O)(=O)c2cccc(Cl)c2)c1N1CCNCC1 [Example E172, 1-(3-Chlorobenzenesulfonyl)-5-methoxy-4-piperazin-1-yl-1H-indole hydrochloride]",0.2 to 1.58 nM
17,"COc1ccc(N2CCNCC2)c2ccn(S(=O)(=O)c3cccc(Cl)c3)c12 [Example E173, 1-(3-Chlorobenzenesulfonyl)-7-methoxy-4-piperazin-1-yl-1H-indole hydrochloride]",0.2 to 1.58 nM

# Same assay, conditions: human cloned 5-HT6 receptors; procedures of WO 98/27081; read-out: pKi at human cloned 5-HT6 receptors (converted)
row,SMILES,Ki
1,"O=S(=O)(c1ccc2ccccc2c1)n1ccc2c(N3CCNCC3)c(Cl)ccc21 [Example E77, 5-Chloro-1-(naphthalene-2-sulfonyl)-4-piperazin-1-yl-1H-indole trifluoroacetic acid salt]",0.2 to 1.58 nM
2,"COc1c(Cl)cc(Cl)cc1S(=O)(=O)n1ccc2c(N3CCNCC3)c(Cl)ccc21 [Example E78, 5-Chloro-1-(3,5-dichloro-2-methoxybenzenesulfonyl)-4-piperazin-1-yl-1H-indole trifluoroacetic acid salt]",0.2 to 1.58 nM
3,CN1CCN(c2cccc3c2ccn3S(=O)(=O)c2cccc(Br)c2)CC1 [Example E82],0.2 to 1.58 nM
4,CN1CCN(c2cccc3c2ccn3S(=O)(=O)c2cc(Br)c(Cl)s2)CC1 [Example E85],0.2 to 1.58 nM
5,CN1CCN(c2cccc3c2ccn3S(=O)(=O)c2cccc(Cl)c2)CC1 [Example E87],0.2 to 1.58 nM
6,CN1CCN(c2cccc3c2ccn3S(=O)(=O)c2ccc3ccccc3c2)CC1 [Example E90],0.2 to 1.58 nM
7,CN1CCN(c2cccc3c2ccn3S(=O)(=O)c2ccccc2C(F)(F)F)CC1 [Example E91],0.2 to 1.58 nM
8,CN1CCN(c2cccc3c2ccn3S(=O)(=O)c2cccc(C(F)(F)F)c2)CC1 [Example E93],0.2 to 1.58 nM
9,CN1CCN(c2cccc3c2ccn3S(=O)(=O)c2ccccc2)CC1 [Example E94],0.2 to 1.58 nM
10,CN1CCN(c2cccc3c2ccn3S(=O)(=O)c2cc(Cl)cc(Cl)c2)CC1 [Example E99],0.2 to 1.58 nM
11,CN1CCN(c2cccc3c2ccn3S(=O)(=O)c2ccc(F)c(Cl)c2)CC1 [Example E100],0.2 to 1.58 nM
12,CN1CCN(c2cccc3c2ccn3S(=O)(=O)c2ccccc2Br)CC1 [Example E103],0.2 to 1.58 nM
13,O=S(=O)(c1ccccc1C(F)(F)F)n1ccc2c(N3CCNCC3)cccc21 [Example E115],0.2 to 1.58 nM
14,"O=S(=O)(c1cccc(C(F)(F)F)c1)n1ccc2c(N3CCNCC3)c(Cl)ccc21 [Example E139, 5-Chloro-1-(3-trifluoromethyl-benzenesulfonyl)-4-piperazin-1-yl-1H-indole hydrochloride]",0.2 to 1.58 nM
15,"O=S(=O)(c1ccc(Cl)cc1OC(F)(F)F)n1ccc2c(N3CCNCC3)cccc21 [Example E168, 1-(4-Chloro-2-trifluoromethoxybenzenesulfonyl)-4-piperazin-1-yl-1H-indole hydrochloride]",0.2 to 1.58 nM
16,"N#Cc1cc(Br)ccc1S(=O)(=O)n1ccc2c(N3CCNCC3)c(Cl)ccc21 [Example E170, 1-(4-Bromo-2-cyanobenzenesulfonyl)-5-chloro-4-piperazin-1-yl-1H-indole hydrochloride]",0.2 to 1.58 nM
17,"O=S(=O)(c1cccc(Cl)c1)n1ccc2c(N3CCCNCC3)ccc(Cl)c21 [Example E175, 7-Chloro-1-(3-chlorobenzenesulfonyl)-4-[1,4]diazepan-1-yl-1H-indole hydrochloride]",0.2 to 1.58 nM
